Results reported in a melting point compilation (Tetko et al.; mined from patent text by program, amines drawn as free bases though some values may be those of a salt).

Row | Compound | melting point [°C]
1 | C(=Cc1nc(CNc2ccc(CCCCn3ccnn3)cc2)co1)c1ccc2c(c1)OCO2 | 130 to 131
2 | O=c1c(CO)cc(-c2ccc3c(c2)CCO3)nn1Cc1ccc(Cl)cc1 | 129 to 134
3 | NS(=O)(=O)c1ccc(-c2cn(-c3nc(-c4ccc(Cl)c(Cl)c4)cc(C(F)(F)F)n3)cn2)cc1 | 334
4 | O=C(Nc1nc(-c2ccccc2)nc2[nH]ccc12)[C@@H]1CCCN1 | 236 to 238
5 | O=c1cc2c(n[nH]1)-c1ccccc1C2 | 295
6 | Cc1ccc(-c2cc(CO)nn2-c2ccc(S(N)(=O)=O)cc2)cc1 | 166 to 169
7 | CC1(CNc2ccccc2)SC2C(NC(=O)Cc3ccccc3)C(=O)N2C1C(=O)OCC(Cl)(Cl)Cl (stereo not given) | 148 to 149
8 | Cc1nc2c(NC(=O)C(C)(C)C)cccn2c1Cl | 117 to 118
9 | CCc1c2c(c(C)[nH]c1=O)CC(c1ccccn1)CC2 (stereo not given) | 300
10 | O=C(NC(=S)Nc1ccc2nsnc2c1Cl)c1ccccc1 | 220 to 222
11 | CC(=O)C(=CS(=O)(=O)NC(C)C)c1cccc([N+](=O)[O-])c1 | 153 to 157
12 | O=C(CN1CC(S(=O)Cc2ccc(C(=O)O)cc2)C1=O)NCCCCCCc1ccc(Cl)cc1 (stereo not given) | 195 to 197
13 | Cc1n[nH]c(C)c1-c1cccc(OC2SCC(O)C(O)C2O)c1 (stereo not given) | 213
14 | CS(=O)(=O)NC1CCC(=O)N2CCCC(C(=O)NC(CC(=O)O)C(=O)COc3cccnc3)N2C1=O (stereo not given) | 120 to 125
15 | CS(=O)(=O)c1ccc(-c2c(-c3ccc(F)cc3)c(OCc3c(F)cccc3Cl)nn2Cc2c(F)cccc2Cl)cc1 | 195 to 196
16 | CCOC(=O)C(Cl)=Cc1cccc([N+](=O)[O-])c1 | 75
17 | CNc1ccccc1C(=O)CCl | 65 to 68
18 | O=C(NNS(=O)(=O)c1ccccc1)c1ccc2[nH]ccc2c1 | 209 to 211
19 | O=[N+]([O-])c1ccccc1NCC12CC3CC(CC(C3)C1)C2 | 106 to 109
20 | CN1CC(=O)Nc2ccsc2C1=O | 270 to 272
21 | COc1cc(C(=O)N2Cc3ccc(C(=O)NCc4ccc(Cl)cc4)n3Cc3ccccc32)ccc1-c1ccccc1C | 218 to 219
22 | COc1ccc2c(c1)CC(C(=O)O)O2 (racemic) | 98 to 100
23 | CC(C)(COC(=O)COc1ccc(C(=O)CN2Cc3cc(C#N)ccc3C2=O)cc1)NS(=O)(=O)c1cccnc1 | 190 to 192
24 | CC(=O)CCC(CCC(C)=O)(C(C)=O)C(C)=O | 59
25 | CC(C)NC(=O)Oc1ccccc1 | 81 to 82

Row | Compound | melting point [°C]
26 | CS(=O)(=O)N(c1ccc(C#Cc2cnn3c(C(F)(F)F)cc(-c4ccc(C(F)(F)F)cc4)nc23)cn1)S(C)(=O)=O | 250 to 251
27 | COc1cc(OC)c2c(=O)[nH]c(-c3ccc(O)cc3)cc2c1 | 245 to 247
28 | O=C(c1cccs1)c1cc(Cc2ccccc2)c(O)c2ccccc12 | 150 to 152
29 | Cc1nc(N2CCN(C)CC2)nc(N)c1-c1cccc(Br)c1 | 120 to 122
30 | O=C(O)COc1ccc(-c2cc(O)c(SCCc3ccccc3)c(=O)o2)cc1 | 182 to 183
31 | Cc1c(-c2cc(C(=O)O)c(Cl)cc2F)nn(C)c1C(F)(F)F | 155
32 | Nc1ccc(F)c(SC(F)(F)F)c1 | 120
33 | CCCCC[C@@H](CNC(=O)Nc1cccc2c1OC(C)(C)C2)c1cccc2c1OCO2 | 161 to 162
34 | CC(C)(C)OC(=O)C(CNC(=O)c1ccc(O)cc1)NC(=O)OCc1ccccc1 (stereo not given) | 69
35 | O=c1cc(-c2ccsc2)c2ccc(CCl)cc2o1 | 125 to 127
36 | CCCOc1ccc(-c2ccc3c(c2)C=C(C(=O)O)CCS3(=O)=O)cc1 | 270 to 273
37 | CCCCOc1c(C(=O)O)n(CC(C)C)c(=O)c2ccc(OCc3ccccc3)cc12 | 151 to 152
38 | CCOC(=O)C1CCn2c(cc3ccccc32)C1OC(C)=O (stereo not given) | 98 to 100
39 | CC(=O)c1cccn1Cc1ccco1 | 42 to 43
40 | CCOc1cc(OCCCCc2cn(-c3ccc(C(F)(F)F)cn3)nc2OCC)ccc1CCC(=O)O | 101 to 102
41 | CCCCN(C(=O)c1ccc(Cl)cc1)[C@@H]1CN(CC)C[C@H]1O (relative stereo) | 96.5 to 98
42 | CN1CCN(c2cccc3c2C[C@H](NC(=O)c2ccc(Cl)cc2)CC3)CC1 | 204 to 205
43 | COC(=O)N(Oc1cc(Cl)cc(Cl)c1)C(=O)N(C)C(C)C | 67 to 69
44 | CCC(=O)C(Oc1cc(C#N)cc(C#N)c1)C(=O)OC (stereo not given) | 93 to 95
45 | Cc1ccc2c(S(C)(=O)=O)cn(CC3=NCCN3)c2c1 | > 300
46 | CC1(C)CN2C(=O)c3nc[nH]c3N(Cc3ccc(Cl)cc3)C2=N1 | 222 to 223
47 | CCCc1ccccc1Sc1c(C)n(CC(=O)O)c2ccc(NS(C)(=O)=O)cc12 | 160
48 | O=c1c2c(n(-c3ccccc3)c3ncccc13)OC(CI)C2 (stereo not given) | 178 to 180
49 | COc1cc2c(c(Cl)c1Cl)SCC2O (stereo not given) | 122 to 124
50 | Cc1cc(C2=NOC(c3cc(Cl)cc(Cl)c3)(C(F)(F)F)C2)ccc1Br (stereo not given) | 105 to 108

Row | Compound | melting point [°C]
51 | CN(C)CCc1c(C(=O)O)[nH]c2ccc(C[C@H]3COC(=O)N3)cc12 | 230
52 | CC(C)(C)OC(=O)/C(C#N)=C/c1cccc2ccccc12 | 51 to 53
53 | CCC(C)Nc1c([N+](=O)[O-])cc(C(F)(F)F)c(C)c1[N+](=O)[O-] (stereo not given) | 38 to 39
54 | CCOC(=O)C1=C(COCCNc2noc(N)n2)NC(C)=C(C(=O)OC)C1c1ccccc1Cl (stereo not given) | 135
55 | Cn1c(=O)oc2c(OC3CCCCO3)cccc21 (stereo not given) | 128 to 129
56 | O=C1CCCc2c1c1cccc(Cl)c1n2Cc1ccccc1 | 161 to 162
57 | CON=C1CC(=NOC)c2ccccc2-c2ccccc21 | 130
58 | CN(C)CCCOc1cc(-c2ncccc2Cl)cc2c(Nc3nccs3)n[nH]c12 | 215 to 217
59 | CCc1nc(N)nc(N)c1-c1ccccc1Cl | 197 to 198
60 | Cc1c(Cl)c(Cl)c(Cl)c(CCl)c1Cl | 88 to 89
61 | O=C(OCC1OC(n2cc(F)c(=O)[nH]c2=O)C(OC(=O)c2ccccc2)C1OC(=O)c1ccccc1)c1ccccc1 (stereo not given) | 208 to 209
62 | Cc1c(SCc2ccc(-c3ccccc3)cc2)cnn(C(C)(C)C)c1=O | 112 to 115
63 | NNC1=NC(=O)C(=Cc2cccc(-c3cc(F)c(O)c(C45CC6CC(CC(C6)C4)C5)c3)c2)S1 | 303 to 308
64 | CCc1nnc2c(NC3CCCC3)nc3ccccc3n12 | 166 to 168
65 | CC(C)S(=O)(=O)c1cc(OCCc2ccccn2)c2[nH]nc(Nc3nccs3)c2c1 | 190 to 191
66 | CSc1ccc(N2CCON(C)C2=O)cc1C(F)(F)F | 60
67 | CCCCCCC(C)(C)c1cc(OC)c(C2C(O)[C@]3(C)CC[C@H]2C3(C)C)c(OC)c1 (stereo not given in full) | 96 to 98
68 | CC(C)Nc1cccnc1N1CCN(C(=O)c2ccc(C(=O)NCC3CCCO3)cn2)CC1 (stereo not given) | 108 to 110
69 | COc1cc(C)nc(NC(=O)NS(=O)(=O)c2ccccc2CCSC#N)n1 | 161 to 165
70 | CC(=O)NCCCc1cccc2c1CC(CCCCc1ccccc1)O2 (stereo not given) | 40 to 41
71 | CCOC(=O)C1=C(C)N=C(SCc2ccc(OC)cc2)N(C(=O)OCC)C1c1cccc(C#N)c1 (stereo not given) | 85 to 87
72 | COc1ccc(-c2csc(Nc3ccncc3)n2)cc1OC | 205 to 207
73 | O=C1SC(Cc2ccc(OCCON=Cc3ccc(-c4ccccc4)nc3)cc2)C(=O)N1C(c1ccccc1)(c1ccccc1)c1ccccc1 (stereo not given) | 146 to 148
74 | CC(=O)CC(=O)CCC(=O)CC(C)=O | 62.7 to 64
75 | CC(=O)NN=C(C)c1ccncc1 | 178

Row | Compound | melting point [°C]
76 | CC(=O)OC1C=C(C)C(=O)CC(C)(C)C1OC(=O)c1ccc(Cl)cc1 (stereo not given) | 86 to 87
77 | CC(=S)NC[C@H]1CN(c2ccc(N3CCOCC3)c(F)c2)C(=O)O1 | 158
78 | CCc1c(Sc2ccccc2)n(CC2CC=CC2)c(=O)[nH]c1=O | 112 to 113
79 | CN1CCN(C(=O)OC2c3ccc(C(F)(F)F)cc3C(=O)N2c2ccc3ccc(Cl)nc3n2)CC1 (stereo not given) | 219
80 | O=C(O)CCCCCn1c2ccccc2c(=O)c2ccccc21 | 167
81 | CCOC(=O)C1=Cc2c(OC)ccc(OC)c2CC1 | 74 to 76
82 | O=c1cc(-c2ccccc2)sn1-c1nc2ccccc2s1 | 201 to 202
83 | Cc1cc([N+](=O)[O-])c(Cl)c([N+](=O)[O-])c1S(=O)(=O)Cl | 105 to 107
84 | Oc1c(Br)cc(-c2cccc3sc4ccccc4c23)cc1Br | 128 to 130
85 | COC(C)(C)C(Cl)=NO | 95
86 | Nc1cccc(C#Cc2ccc(OC3CN4CCC3CC4)nn2)c1 (stereo not given) | 152 to 158
87 | Cc1cnc2c(NC(=O)c3c(Cl)cccc3Cl)ccc(Cl)c2c1Cl | 222 to 233
88 | COc1ccc(-c2cc(=S)ss2)cc1 | 110 to 111
89 | CCCCN1CCC(C(=O)NO)(S(=O)(=O)c2ccc(OC)cc2)CC1 | 75
90 | CC1(C)COc2cc(Cl)c(Cl)cc2C(O)(c2cccnc2)C1 (stereo not given) | 166
91 | O=C1Cc2cc(Cl)cc(Oc3ccccc3Cl)c2N1 | 196 to 198
92 | COc1cc(CCCCCC2OCCO2)ccc1OCc1nc(-c2ccccc2)oc1C | 81 to 82
93 | COc1cc2ncnc(N3CCN(C(=O)Nc4cccnc4)CC3)c2cc1OC | 208 to 209
94 | FC(F)(F)C1(c2cc(Cl)cc(Cl)c2)CC(c2ccc(CCl)cc2)=NO1 (stereo not given) | 98 to 100
95 | CCC(C(O)c1ccc(Cl)cc1)n1ncn(-c2ccc(N3CCN(C(=O)c4ccccn4)CC3)nc2)c1=O (stereo not given) | 210
96 | CC(C)N1CCN(Cc2ccc(Cl)nc2)C1=N[N+](=O)[O-] | 138 to 142
97 | CC(C)c1cccc(CCCO)c1NC(=O)CC1c2ccccc2Oc2ccccc21 | 218 to 219
98 | OC1=C(C(=S)Nc2ccccc2)c2nc3ccccc3n2CC1 | 224 to 227
99 | O=Cc1nccn1Cc1cn(-c2ccc(Cl)c(Cl)c2)cn1 | 130 to 131
100 | Cc1cc(C2(C(F)(F)F)CC(c3ccc(S(C)=O)cc3)=NO2)ccc1NC(=O)OC(C)(C)C (stereo not given) | 76.5 to 88.5
